Laboratory results from patent publication US6844182B2, “Mutants which produce a potentiator of bacillus pesticidal activity” (priority 1992, dated 2005).
Where two headings read alike, the source gives them in different places.

Columns and labels:
Septoria nodorum = assay: Fungal growth inhibition assay, Septoria nodorum; type: cell-based
Protocol: (§1) Mutants of the Bacillus thuringiensis subsp. kurstaki strain which produce the factor are identified using fungal agar plates of Septoria nodorum and Alternaria alternata.
(§2) The two fungi are grown on PDA (potato dextrose agar) plates at 26° C. for 10-14 days until sufficient sporulation is obtained. Alternaria alternata is incubated in alternating UV light and darkness (12 hrs. each). The spores are removed from the plates and suspended in sterile water. Septoria nodorum spores are filtered through a sterile G1 filter. The Alternaria alternata spore concentration is adjusted to approximately 2×10^5 per ml and the Septoria nodorum spore concentration is adjusted to approximately 2×10^6 per ml using a Burker-Turk or Fuchs-Rosenthal counter. Samples of 1.5 ml of the spore suspension are then mixed with 1.5 ml of sterile 40% glycerol in water, frozen for 1 day at −20° C. and thereafter stored at −80° C. until use.
(§3) Test plates for the factor are prepared by mixing at 46° C. a 1.5 ml spore sample (as described above) with 115 ml of antibiotic agar medium No. 2 (25.5 g per liter) comprising streptomycin at a final concentration of 100 μg per ml, and transferring the mixture to sterile plastic trays (Nunc No. 101875). After the agar has solidified, […] holes are punched into the agar (120 holes per tray).
(§4) Samples of a culture are serially diluted in 100 μg of streptomycn per ml of sterile water and 10 μl of the diluted samples are dispensed into the trays prepared as described above. The trays are incubated at 26° C. for 2 days. Dilutions of the factor are also run as a positive control.
(§5) The sensitivity of the fungal growth inhibition assay is in the range of 0.05 gram of the factor per liter (barely visible) and 0.1 gram of the factor per liter (clear zone) for both fungi.

Spodoptera exigua = type: in vivo; parameters: key to Stunt Score: 4.0 = untreated control; 3.0 = 75% size of untreated control; 2.0 = 50% size of untreated control; 1.0 = 25% size of untreated control; 0.0 = no growth or size unchanged from start of experiment
Protocol: Activity is monitored by a Spodoptera exigua micro-bioassay, and purity is determined by capillary electrophoresis. […] The trays containing the various samples are air dried. Two to four 2nd or early 3rd instar Spodoptera exigua are added to the wells containing the dried sample. The wells are sealed with mylar poked with holes and are incubated for 2-3 days at 30° C. Degree of stunting and percent mortality are then recorded. Typically, 5 replicate wells are run for each sample.

[1] = Stability of Ia (retention of activity); type: physicochemical
Protocol: Further, it is stable when subjected to direct sunlight for at least 10 hours. Ia is stable at a pH 2 for 3 days, but unstable at pH 12.

Alternaria alternata = assay: Fungal growth inhibition assay, Alternaria alternata; type: cell-based
Protocol: as §1, §2, §3, §4, §5

Solubility of Ia = type: physicochemical
Source text: The active compound is found to be water soluble but is not soluble in organic solvents. […] A DEPT experiment determined that there are three quaternary carbons (C), seven methines (CH), three methylenes (CH2) and no methyl groups (CH3). Using proton coupling experiments such as 1-D decoupling and COSY, one large spin system containing eight carbons is identified. In addition, a smaller spin system consisting of two carbons is present. A carbon proton correlation experiment (HMBC) enabled assignment of each proton resonance in the molecule to its attached carbon.

Phytophthora medicaginis = conditions: U.S. Pat. Nos. 4,877,738 and 4,878,936; cited from earlier work

In the case of `NC(=O)NCC(NC(=O)C(O)C(O)C(N)C(O)CC(O)C(N)CO)C(N)=O` (stereo not shown) [Ia], the “effect on fungal growth” value (Septoria nodorum; agar plates) is reported as “inhibits growth”, the “concentration giving barely visible inhibition (assay sensitivity)” value (Septoria nodorum; barely visible, 26° C., 2 days) is reported as 0.05 gram of the factor per liter and the “concentration giving clear zone (assay sensitivity)” value (Septoria nodorum; clear zone, 26° C., 2 days) is reported as 0.1 gram of the factor per liter. For the same compound, the “Stunt Score” value (Spodoptera exigua; Ia + alone, Bt protein None) was 4.0, the “effect on activity of B.t. subsp. kurstaki and aizawai crystal delta-endotoxin pesticidal proteins toward Spodoptera exigua” value (Spodoptera exigua; regardless of the form of the pesticidal proteins) was “potentiate” and the stability upon autoclaving ([1]; autoclaving (>190° C.)) was “loses all activity”. For the same compound, the stability upon boiling ([1]; boiling for 5 minutes) was “stable”, the “time stable in direct sunlight” value ([1]; direct sunlight) was “at least 10 hours” and the “stability to periodic acid or concentrated HCl” value ([1]; exposed to periodic acid or concentrated HCl) was “lose all activity”. For the same compound, the “stability at pH 2” value ([1]; pH 2 for 3 days) was “stable”, the “stability at pH 12” value ([1]; pH 12) was “unstable” and the “effect on fungal growth” value (Alternaria alternata; agar plates) was “inhibits growth”. For the same compound, the “concentration giving barely visible inhibition (assay sensitivity)” value (Alternaria alternata; barely visible, 26° C., 2 days) was 0.05 gram of the factor per liter, the “concentration giving clear zone (assay sensitivity)” value (Alternaria alternata; clear zone, 26° C., 2 days) was 0.1 gram of the factor per liter and the “solubility in organic solvents” value (Solubility of Ia; organic solvents) was “not soluble”. The solubility in water (Solubility of Ia; water) was “water soluble”.
For `NC(=O)NCC(NC(=O)C(O)C(O)C(N)C(O)CC(O)C(N)CO)C(N)=O` (stereo not shown) [zwittermicin A], the “effect on growth of the plant pathogen Phytophthora medicaginis” value (Phytophthora medicaginis) is listed as “inhibits the growth” and the “effect on infection of alfalfa” value (Phytophthora medicaginis) is listed as “reduces the infection”.
With “CryIA(c): Bacillus thuringiensis CryIA(c) delta-endotoxin protein purified from BIOBIT FC” the “Stunt Score” value (Spodoptera exigua; Bt protein 3 μg/ml, Ia +) was 1.0 (1.0 = 25% size of untreated control), the “Stunt Score” value (Spodoptera exigua; Bt protein 15 μg/ml, Ia +) was 0.0 and the “Stunt Score” value (Spodoptera exigua; Bt protein 30 μg/ml, Ia −) was 4.0. The “concentration with Ia producing the same insect mortality/stunt score as protein alone” value (Spodoptera exigua; full-length protein, equals 240 μg/ml of CryIA(c) alone) was 0.75 µg/mL, the “Stunt Score” value (Spodoptera exigua; purified truncated Bt protein OD280 0.0006, Ia +) was 1.0 (1.0 = 25% size of untreated control) and the “Stunt Score” value (Spodoptera exigua; purified truncated Bt protein OD280 0.0012, Ia +) was 1.0 (1.0 = 25% size of untreated control). The “Stunt Score” value (Spodoptera exigua; purified truncated Bt protein OD280 0.0025, Ia +) was 2.0 (2.0 = 50% size of untreated control), the “Stunt Score” value (Spodoptera exigua; purified truncated Bt protein OD280 0.005, Ia +) was 0.0 and the “Stunt Score” value (Spodoptera exigua; purified truncated Bt protein OD280 0.020, Ia +) was 0.0. The “OD280 in combination with Ia giving the same stunt score as protein alone” value (Spodoptera exigua; truncated protein, equals OD280 of 0.075 tested alone) was 0.0006 OD280.
